Here are results for three molecules from publication PMC11180795 (Frontiers in Pharmacology, 2024).

Molecules are shown by their SMILES.

Assay [1] addresses T1, 15-lipoxygenase from Glycine max (Glycine max, UniProt P08170).
T1 construct: purchased Sigma (Germany)
T1 sequence (P08170 1-839): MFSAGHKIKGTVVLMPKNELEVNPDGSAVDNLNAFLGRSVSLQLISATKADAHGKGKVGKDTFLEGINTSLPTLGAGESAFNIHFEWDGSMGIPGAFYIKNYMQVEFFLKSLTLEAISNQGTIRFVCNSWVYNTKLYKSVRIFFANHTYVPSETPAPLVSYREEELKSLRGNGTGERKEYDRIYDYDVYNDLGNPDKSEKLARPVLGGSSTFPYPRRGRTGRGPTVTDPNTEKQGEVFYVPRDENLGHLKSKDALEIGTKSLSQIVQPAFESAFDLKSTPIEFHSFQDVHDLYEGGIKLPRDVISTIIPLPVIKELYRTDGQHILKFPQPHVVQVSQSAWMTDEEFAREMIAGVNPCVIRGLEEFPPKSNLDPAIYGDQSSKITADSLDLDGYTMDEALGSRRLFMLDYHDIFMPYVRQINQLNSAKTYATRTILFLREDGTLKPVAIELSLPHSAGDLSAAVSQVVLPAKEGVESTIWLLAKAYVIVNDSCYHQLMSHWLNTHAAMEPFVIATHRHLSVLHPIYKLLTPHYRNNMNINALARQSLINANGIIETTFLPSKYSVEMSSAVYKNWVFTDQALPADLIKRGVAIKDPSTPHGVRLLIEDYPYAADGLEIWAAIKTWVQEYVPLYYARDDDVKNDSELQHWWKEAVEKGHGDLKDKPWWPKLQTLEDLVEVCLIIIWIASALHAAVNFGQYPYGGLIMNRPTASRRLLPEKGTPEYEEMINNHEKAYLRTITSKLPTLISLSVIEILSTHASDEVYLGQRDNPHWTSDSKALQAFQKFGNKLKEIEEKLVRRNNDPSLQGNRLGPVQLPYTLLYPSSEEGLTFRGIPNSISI
Nature of the assay: Soybean 15-LOX inhibition assay (ferrous oxidation-xylenol orange). The note with it: linoleic acid 140 µM, pH 7.4, 25°C. Format: biochemical. As to the method: The assay was performed according to a previously described procedure ([Pinto et al., 2007]) with slight modifications. The assay is based on measuring the formation of the complex Fe3^+/xylenol orange in a spectrophotometer at 560 nm. 15-LOX from G. max was incubated with compounds or standard inhibitors at 25°C for 5 min. The concentration range of the samples were from 250 μM to 1.95 µM. Then linoleic acid (final concentration, 140 µM) in Tris-HCl buffer (50 mM, pH 7.4) was added and the mixture was incubated at 25°C for 20 min in the dark. The assay was terminated by the addition of 100 µL of FOX reagent consisting of sulfuric acid (30 mM), xylenol orange (100 µM), iron (II) sulfate (100 µM) in methanol/water (9:1). For the control, only LOX solution and buffer were pipetted into the wells. Blanks (background) contained the enzyme LOX during incubation, but the substrate (linoleic acid) was added after the FOX reagent. […] The LOX inhibitory activity was evaluated by calculating the percentage of the inhibition of hydroperoxide production from the changes in absorbance values at 560 nm after 30 min at 25°C. % inhibition = [(Acontrol – Ablank) – (Asample – Ablank)/(Acontrol – Ablank)] x100. Where Acontrol is the absorbance of control well, Ablank is the absorbance of blank well and Asample is the absorbance of sample well.

The subject of the next assay is IL-10. Put plainly: Th1/Th2 cytokine measurement (Cytometric Bead Array) in LPS-stimulated Raw 264.7 cells, IL-10. Format: cell-based, Murine. The note with it: compound at 20 µM, LPS 0.1 μg/mL, 24 h; stimulated untreated control 0.88 pg/mL. As to the method:
(§1) Raw 264.7 cells were seeded at 2 × 10^5 cells/mL in a 48-well microplate and allowed to adhere for 24 h, then treated with LPS 0.1 μg/mL and with compounds (1), (5) and (6) at 20 µM. Untreated cells and indomethacin (10 µM) were used as controls. After 24 h of incubation, the supernatant was collected and the amount of pro-inflammatory Th1 cytokines (IFN-γ, TNF-α, and IL-2) and anti-inflammatory Th2 cytokines (IL-4, IL-6, and IL-10) released measured. The experiment was performed according to the manufacturer’s instructions using BD™ Cytometric Bead Array (CBA) […] Th1/Th2 Cytokine Kit (BD-Biosciences), and data were acquired on a BD LSR Fortessa™ cell analyzer flow cytometer.

Another assay has as its system IL-2. Nature of the assay: Th1/Th2 cytokine measurement (Cytometric Bead Array) in LPS-stimulated Raw 264.7 cells, IL-2. The conditions noted are these: compound at 20 µM, vs stimulated and untreated control. Format: cell-based, Murine. As to the method: as §1

Take `CC(C)=CCc1c2c(c3oc4c(O)cccc4c(=O)c3c1O)C=CC(C)(C)O2` [Compound 1, Ananixanthone]: the IC50 (as a rule, the midpoint of a concentration-inhibition curve) in assay [1] was 63.9 µM. In the assay on IL-10, this molecule returned an IL-10 level of 0.971 pg/mL.

`CC(C)=CCC/C(C)=C/C[C@]12C[C@@H](CC=C(C)C)C(C)(C)[C@](CC=C(C)C)(C(=O)C(C(=O)c3ccc(O)c(O)c3)=C1O)C2=O` [Compound 6, Guttiferone M] yielded an IC50 in assay [1] of 53 µM. The “effect on IL-2 production (in words)” value in the assay on IL-2 was “limited effect”. The same molecule registered an IL-10 level in the assay on IL-10 of 1.77 pg/mL.

As to `CC(C)=CCC/C(C)=C/C[C@]12C[C@@H](CC=C(C)C)C(C)(C)[C@](C/C=C(\C)CCC=C(C)C)(C(=O)C(C(=O)c3ccc(O)c(O)c3)=C1O)C2=O` [Compound 5, Guttiferone O], the IC50 in assay [1] is 45 µM. The “effect on IL-2 production (in words)” value in the assay with IL-2 is recorded as “significantly reduces”. The IL-10 level in the assay with IL-10 worked out at 2.05 pg/mL.
